Read-outs that look alike come from different tables or passages of the source.
What was measured:
Wee1 kinase (h) = Wee1 kinase (h) (Homo sapiens, UniProt P30291); assay: Wee1 kinase (h) detection method, [γ-33P]-ATP filter assay; format: biochemical; settings: 10 μM ATP, 40 minutes at room temperature
Experimental: Wee1 kinase (h) was incubated with 20 mM Tris/HCl pH 8.5, 0.2 mM EDTA, 500 μM […], 10 mM MgAcetate and 10 μM [γ-^33P]-ATP. Then the stock solution of all compounds under test with 50× concentration in 100% DMSO was added to make the final concentration of 1/0.1/0.01 μM, and then mixed the mixture well. The reaction was initiated by the addition of the Mg/ATP mix. After incubation for 40 minutes at room temperature, the reaction was stopped by the addition of phosphoric acid to a concentration of 0.5%. 10 μL of the reaction liquor was then spotted onto a P30 filtermat and washed four times in 0.425% phosphoric acid and once in methanol prior to drying and scintillation counting. Each compound sample was duplicated in duplicate. The negative control was lack of all the components of Wee1 enzyme, and the positive was addition of 30% phosphoric acid to terminate the reaction. The Wee1 inhibitor AZD1775 was detected at 10/0.01 μM at the same experiment condition.

LoVo cells = assay: MTT based cell viability assay on LoVo cells; settings: Homo sapiens, 72 h, read-out: IC50, growth inhibition on LoVo cells
Experimental: Determination of the Cell Growth Inhibiting Activity of 6-(2,6-dichlorophenyl)-2-((4-(4-methylpiperazin-1-yl)phenyl)amino)imidazo[1,2-b]pyrimido[4,5-d]pyridazin-5(6H)-one and Analogs Thereof on LoVo Cells Using a MTT Based Cell Viability Assay
The thawed LoVo cells were cultured and passaged to the third generation, and the growth state was good and the confluence was about 90%, which began to be used in the experiment. The LoVo cells were digested with trypsin, centrifuged at 800 rpm for 5 min, the supernatant was discarded, resuspended with fresh culture medium, and counted. 6000 Cells are seeded to each well of a 96-well cell culture plate. The cells were incubated at 37° C. in a 5% CO2 cell culture incubator overnight. The tested sample (including the tested compound and the reference compound AZD1775) was diluted continuously to 8 concentrations (the last concentration was negative control of DMSO) with a 1:3 and 1:10 dilution in DMSO respectively: 10 μM, 3.3 μM, 1 μM, 0.33 μM, 0.1 μM, 0.033 μM, 0.01 μM, 0 μM (the final concentration of DMSO was 1%). 5 μL of each concentration was added to 120 μL of culture medium (25 times diluted), and the mixture was shaken well. The overnight cells were taken and the culture medium was removed, 195 μL of fresh culture medium was added to each well, and 5 μL of diluted culture medium containing the corresponding concentration of the tested sample was added respectively, and the culture plate was then placed in the 5% CO2 cell culture incubator at 37° C. for 3 d. After removing the original solution and adding 100 μL of fresh serum-free DMEM culture medium containing MTT (0.5 mg/mL) per well, the culture was continued. The original solution was removed after 4 hrs and 100 μl DMSO was added to each well. The 96-well cell culture plates were shaken away from light for 10 min and readed in a multifunctional reader at 552/630/690 nm to give absorption values (OD values). The data were analyzed using a graphic software (Graph Pad Prism 5.0) and the inhibitory activity of the compound on cell proliferation was plotted in terms of cell survival and compound concentration. The IC50 values were fitted by the S-shaped dose-response curve equation as follows: Y=100/(1+10^(Log C−Log IC50)), where C was the concentration of testing compounds.

NCI-H1299 cells = assay: MTT based cell viability assay on NCI-H1299 cells; settings: Homo sapiens, read-out: IC50, growth inhibition on NCI-H1299 cells
Experimental: Determination of the Cell Growth Inhibiting Activity of 6-(2,6-dichlorophenyl)-2-((4-(4-methylpiperazin-1-yl)phenyl)amino)imidazo[1,2-b]pyrimido[4,5-d]pyridazin-5(6H)-one and Analogs on NCI-H1299 Cells Using a MTT Based Cell Viability Assay
The thawed NCI-H1299 cells were cultured and passaged to the third generation, and the growth state was good and the confluence was about 90%, which began to be used in the experiment. The NCI-H1299 cells were digested with trypsin, centrifuged at 800 rpm for 5 min, the supernatant was discarded, resuspended with fresh culture medium, and counted. 1000 Cells are seeded to each well of a 96-well plate. The cells are incubated at 37° C. in a 5% CO2 cell culture incubator overnight. The tested sample (including the tested compound and the reference compound AZD1775) was diluted continuously to 8 concentrations (the last concentration was negative control of DMSO) with a 1:3 and 1:10 dilution in DMSO respectively: 10 μM, 3.3 μM, 1 μM, 0.33 μM, 0.1 μM, 0.033 μM, 0.01 μM, 0 μM (the final concentration of DMSO was 1%). 5 μL of each concentration was added to 120 μL of culture medium (25 times diluted), and the mixture was shaken well. The overnight cells were taken and the culture medium was removed, 195 μL of fresh culture medium was added to each well, and 5 μL of diluted culture medium containing the corresponding concentration of the tested sample was added respectively, and the culture plate was then placed in the 5% CO2 cell culture incubator at 37° C. for 3 d. After removing the original solution and adding 100 μL of fresh serum-free DMEM culture medium containing MTT (0.5 mg/mL) per well, the culture was continued. The original solution was removed after 4 hrs and 100 μl DMSO was added to each well. The 96-well cell culture plates were shaken away from light for 10 min and readed in a multifunctional reader at 552/630/690 nm to give absorption values (OD values). The data were analyzed using a graphic software (Graph Pad Prism 5.0) and the inhibitory activity of the compound on cell proliferation was plotted in terms of cell survival and compound concentration. The IC50 values were fitted by the S-shaped dose-response curve equation as follows: Y=100/(1+10^(Log C−Log IC50)), where C was the concentration of testing compounds.

[1] = 72 h, NCI-H1299 cells, 3 d, MTT

Sequence of Wee1 kinase (h) (P30291 whole entry): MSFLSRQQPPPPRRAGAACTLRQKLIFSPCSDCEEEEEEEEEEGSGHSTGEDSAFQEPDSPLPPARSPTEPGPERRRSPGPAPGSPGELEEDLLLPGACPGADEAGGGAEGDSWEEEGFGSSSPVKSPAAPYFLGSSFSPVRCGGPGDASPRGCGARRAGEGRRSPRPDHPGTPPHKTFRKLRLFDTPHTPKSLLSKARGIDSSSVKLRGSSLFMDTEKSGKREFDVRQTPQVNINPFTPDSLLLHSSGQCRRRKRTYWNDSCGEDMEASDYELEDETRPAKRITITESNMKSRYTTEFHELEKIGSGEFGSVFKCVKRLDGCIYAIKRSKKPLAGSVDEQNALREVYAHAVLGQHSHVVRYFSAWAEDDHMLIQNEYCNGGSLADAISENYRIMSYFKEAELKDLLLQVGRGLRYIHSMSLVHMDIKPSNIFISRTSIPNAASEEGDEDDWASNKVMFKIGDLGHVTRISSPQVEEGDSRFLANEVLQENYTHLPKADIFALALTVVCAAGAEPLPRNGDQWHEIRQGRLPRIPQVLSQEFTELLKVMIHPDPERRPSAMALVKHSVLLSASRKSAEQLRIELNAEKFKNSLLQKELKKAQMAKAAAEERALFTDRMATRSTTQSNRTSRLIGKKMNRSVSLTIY

| Structure (SMILES) | Inh. (%) of Wee1 kinase (Wee1 kinase (h); C 0.01 μm) | Inh. (%) of Wee1 kinase (Wee1 kinase (h); C 1 μm) | IC50 (LoVo cells; LoVo cells, 3 d, MTT) | IC50 (NCI-H1299 cells; [1]) | Inh. (%) of Wee1 kinase (Wee1 kinase (h); C 0.1 μm) | IC50 (LoVo cells; LoVo) | IC50 (NCI-H1299 cells; NCI-H1299, 72 h) |
| --- | --- | --- | --- | --- | --- | --- | --- |
| Cc1cc(Nc2ncc3c(=O)n(-c4c(C)cccc4Cl)n4ccnc4c3n2)ccc1N1CCN(C)CC1 [Example 16, 6-(2-chloro-6-methylphenyl)-2-((3-methyl-4-(4-methylpiperazin-1-yl)phenyl)amino)imidazo[1,2-b]pyrimido[4,5-d]pyridazin-5(6H)-one] | 22% | 93% | 424 nM | 365 nM | 73% | – | – |
| Cc1cccc(F)c1-n1c(=O)c2cnc(Nc3ccc(N4CCN(C)CC4)c(Cl)c3)nc2c2nccn21 [Example 51, 6-(2-fluoro-6-methylphenyl)-2-((3-chloro-4-(4-methylpiperazin-1-yl)phenyl)amino)imidazo[1,2-b]pyrimido[4,5-d]pyridazin-5(6H)-one] | – | 88% | 998 nM | 1220 nM | – | – | – |
| CN1CCN(c2ccc(Nc3ncc4c(=O)n(-c5c(F)cccc5Cl)n5ccnc5c4n3)cc2)CC1 [Example 7, 6-(2-chloro-6-fluorophenyl)-2-((4-(4-methylpiperazin-1-yl)phenyl)amino)imidazo[1,2-b]pyrimido[4,5-d]pyridazin-5(6H)-one] | – | 92% | 831 nM | 781 nM | – | – | – |
| COc1cc(Nc2ncc3c(=O)n(-c4c(Cl)cccc4Cl)n4ccnc4c3n2)cc(Cl)c1N1CCC(N(C)C)CC1 [Example 38, 6-(2,6-dichlorophenyl)-2-((3-chloro-5-methoxy-4-(4-(dimethylamino)piperidin-1-yl)phenyl)amino)imidazo[1,2-b]pyrimido[4,5-d]pyridazin-5(6H)-one] | 11% | – | – | – | – | 416 nM | 978 nM |
| Cc1cc(Nc2ncc3c(=O)n(-c4c(F)cccc4F)n4ccnc4c3n2)cc(F)c1N1CCN(C)CC1 [Example 19, 6-(2,6-difluorophenyl)-2-((3-fluoro-5-methyl-4-(4-methylpiperazin-1-yl)phenyl)amino)imidazo[1,2-b]pyrimido[4,5-d]pyridazin-5(6H)-one] | – | 92% | 408 nM | 743 nM | – | – | – |
| Cc1cc(Nc2ncc3c(=O)n(-c4c(C)cccc4F)n4ccnc4c3n2)ccc1N1CCN(C)CC1 [Example 14, 6-(2-fluoro-6-methylphenyl)-2-((3-methyl-4-(4-methylpiperazin-1-yl)phenyl)amino)imidazo[1,2-b]pyrimido[4,5-d]pyridazin-5(6H)-one] | – | 93% | 871 nM | 587 nM | – | – | – |
| CN1CCN(c2ccc(Nc3ncc4c(=O)n(-c5c(F)cccc5F)n5ccnc5c4n3)cc2Cl)CC1 [Example 18, 6-(2,6-difluorophenyl)-2-((3-chloro-4-(4-methylpiperazin-1-yl)phenyl)amino)imidazo[1,2-b]pyrimido[4,5-d]pyridazin-5(6H)-one] | – | 87% | 579 nM | 1080 nM | – | – | – |
| CN1CCN(c2ccc(Nc3ncc4c(=O)n(-c5c(Cl)cccc5Br)n5ccnc5c4n3)cc2Cl)CC1 [Example 47, 6-(2-bromo-6-chlorophenyl)-2-((3-chloro-4-(4-methylpiperazin-1-yl)phenyl)amino)imidazo[1,2-b]pyrimido[4,5-d]pyridazin-5(6H)-one] | – | 96% | 370 nM | 562 nM | – | – | – |
| Cc1cc(Nc2ncc3c(=O)n(-c4c(Cl)cccc4Cl)n4ccnc4c3n2)ccc1N1CCN(C)CC1 [Example 3, 6-(2,6-dichlorophenyl)-2-((3-methyl-4-(4-methylpiperazin-1-yl)phenyl)amino)imidazo[1,2-b]pyrimido[4,5-d]pyridazin-5(6H)-one] | 26% | 96% | – | – | 76% | 236 nM | 178 nM |

Further lines, with some results ahead:

| Inh. (%) of Wee1 kinase (Wee1 kinase (h); C 0.01 μm) | Inh. (%) of Wee1 kinase (Wee1 kinase (h); C 1 μm) | IC50 (LoVo cells; LoVo cells, 3 d, MTT) | IC50 (NCI-H1299 cells; [1]) | Structure (SMILES) | Inh. (%) of Wee1 kinase (Wee1 kinase (h); C 0.1 μm) | IC50 (LoVo cells; LoVo) | IC50 (NCI-H1299 cells; NCI-H1299, 72 h) |
| --- | --- | --- | --- | --- | --- | --- | --- |
| 12% | 93% | 269 nM | 173 nM | Cc1cn2c(n1)c1nc(Nc3ccc(N4CCN(C)CC4)c(Cl)c3)ncc1c(=O)n2-c1c(Cl)cccc1Cl [Example 57, 6-(2,6-dichlorophenyl)-2-((3-chloro-4-(4-methylpiperazin-1-yl)phenyl)amino)-9-methylimidazo[1,2-b]pyrimido[4,5-d]pyridazin-5(6H)-one] | – | – | – |
| 9% | – | 242 nM | 151 nM | Cc1cn2c(n1)c1nc(Nc3ccc(N4CCC(N(C)C)CC4)c(C)c3)ncc1c(=O)n2-c1c(Cl)cccc1Cl [Example 58, 6-(2,6-dichlorophenyl)-2-((3-methyl-4-(4-(dimethylamino)piperidin-1-yl)phenyl)amino)-9-methylimidazo[1,2-b]pyrimido[4,5-d]pyridazin-5(6H)-one] | – | – | – |
| – | 77% | 364 nM | 597 nM | Cc1cc(Nc2ncc3c(=O)n(-c4c(F)cccc4F)n4ccnc4c3n2)cc(Cl)c1N1CCN(C)CC1 [Example 20, 6-(2,6-difluorophenyl)-2-((3-chloro-5-methyl-4-(4-methylpiperazin-1-yl)phenyl)amino) imidazo[1,2-b]pyrimido[4,5-d]pyridazin-5(6H)-one] | – | – | – |
| 21% | 95% | 138 nM | 376 nM | Cc1cc(Nc2ncc3c(=O)n(-c4c(F)cccc4Cl)n4ccnc4c3n2)cc(F)c1N1CCN(C)CC1 [Example 22, 6-(2-chloro-6-fluorophenyl)-2-((3-fluoro-5-methyl-4-(4-methylpiperazin-1-yl)phenyl)amino)imidazo[1,2-b]pyrimido[4,5-d]pyridazin-5(6H)-one] | – | – | – |
| 12% | – | 352 nM | 126 nM | CCc1cn2c(n1)c1nc(Nc3ccc(N4CCC(N(C)C)CC4)c(C)c3)ncc1c(=O)n2-c1c(Cl)cccc1Cl [Example 61, 6-(2,6-dichlorophenyl)-2-((3-methyl-4-(4-(dimethylamino)piperidin-1-yl)phenyl)amino)-9-ethylimidazo[1,2-b]pyrimido[4,5-d]pyridazin-5(6H)-one] | – | – | – |
